Data: patent publication US20050143472A1, “Novel treatment for pathologies associated with oxidative damage” (priority 2002, published 2005)
Where two headings read alike, the source gives them in different places.

Key:
[1] = target: T1, mPAO (Mus musculus, UniProt Q8C0L6); assay: Oxygraph assay of O2 consumption, progress-curve analysis; assay type: biochemical, murine
T1 construct: the full length cDNA of mpao was released by Nde I and Hind III treatment, and ligated into Nde I and Hind III sites of pET29c; made in house; host or cells: E. coli BL21 GOLD (DE3), plasmid pET-MPAO (pET29c)
Description: Some assays (oxygraph assays) were carried out by directly monitoring O2 consumption in air-saturated buffer ([O2]=0.237 mM) or buffer saturated with pure O2 at 30° C. ([O2]=1.12 mM). The depletion of O2 was detected with a Yellow Springs Instruments, Inc. Model 53 Oxygen Monitor equipped with a Clark electrode. […] Following a published procedure (Goudar et al., Biochim. Biophys. Acta 1429:377-383 [1999]), the data were fitted to the integrated Mechaelis-Menton equation. The analyses were done using Maple VI (Windows 2000) software (Waterloo Maple, Inc.) running on a PC computer. […] Inhibition by the H2O2, formed as a product of polyamine oxidation by mPAO, was assessed by addition of 2 μL of a 30 mg/mL (30,000 units/mg) solution of catalase, after [O2] reached zero.
The catalase immediately converted each mole of H2O2 to 0.5 mol of O2 (since [O2]=1.12 mM for pure O2-saturated buffer, then [O2]=0.56 mM immediately after catalase addition). In the presence of catalase, O2 depletion should occur at 0.5× the rate as it does in the absence of catalase (unless H2O2 inhibition is operating). With catalase present, each molecule of O2 will be converted eventually to H2O (4-electron equivalents), rather than to H2O2 (2-electron equivalents).

[2] = test system: OVCAR-3 human ovarian carcinoma cells; details: approximately 50 μM, within 20 hrs
From the text: (§1) In this Example, the method used to examine hpao mRNA production by cultured cells undergoing apoptosis is described.

[3] = test system: HL-60 human promyelogenous leukemia cells
From the text: as §1

[4] = test system: hpao mRNA
Description: In addition, a reverse-transcriptase-PCR (RT-PCR) experiment was performed to analyze the expression of hpao in OVCAR-3 and HL-60 cells. Briefly, about 10^6 to 10^7 cells were harvested and the total RNA of each sample was isolated by using the RNeasy miniprep kit (QIAGEN). A 1 μg mRNA sample was used for cDNA synthesis with the MMLV reverse transcriptase following the manufacturer's instructions provided with the Advantage RT-for-PCR Kit (Clontech). Human liver and placenta polyA mRNA were also obtained from Clontech. cDNA amplification was achieved following the SMART RACE™ cDNA Amplification method (Clontech). A pair of gene specific primers was generated based on the hpao cDNA sequence; hpao1 was the sense primer 5′-[…] ACCTTTC-3′ (SEQ ID NO:17), and hpao2R was the antisense primer 5′-[…] AGT-3′ (SEQ ID NO:18). Positive control amplimers for human G3PDH (glyceraldehyde-3-phosphate-dehydrogenase) were also used; the sense primer was 5′-[…] G-3′ (SEQ ID NO:19) and the antisense primer was 5′-[…] CT-3′ (SEQ ID NO:20). PCR was performed at 94° C. for 3 min, 25 cycles at 94° C. for 10 sec, 68° C. for 1 min, and 72° C. for 1 min.
as §1

T1 sequence (Q8C0L6 whole entry E184K/L285S/R416L/R417S/Q419R/E451A/V490I/S491G/V497A): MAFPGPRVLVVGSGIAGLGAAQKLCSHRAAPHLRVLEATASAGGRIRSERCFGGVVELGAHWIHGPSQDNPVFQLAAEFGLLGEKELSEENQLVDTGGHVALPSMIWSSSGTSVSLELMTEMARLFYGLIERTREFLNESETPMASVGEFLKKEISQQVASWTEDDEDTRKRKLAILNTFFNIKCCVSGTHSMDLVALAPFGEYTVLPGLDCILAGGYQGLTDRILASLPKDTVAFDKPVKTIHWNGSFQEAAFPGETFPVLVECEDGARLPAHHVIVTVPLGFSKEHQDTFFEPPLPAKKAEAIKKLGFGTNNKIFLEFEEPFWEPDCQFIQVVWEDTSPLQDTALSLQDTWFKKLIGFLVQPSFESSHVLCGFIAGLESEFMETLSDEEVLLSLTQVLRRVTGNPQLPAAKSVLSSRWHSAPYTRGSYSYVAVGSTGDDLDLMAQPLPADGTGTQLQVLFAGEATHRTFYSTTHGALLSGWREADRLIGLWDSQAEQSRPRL

Structure (SMILES): CC(=O)NCCCNCCCCNCCCN [N^1-acetyl-Spm, N^1-acetyl-spermine]
- KQ ([1]; Michaelis constant for O2, saturating amine substrate): 180 ± 20 µM
- kcat/KQ ([1]; for O2, saturating amine substrate, pure O2-saturated buffer): (4.4 ± 0.4) × 10^4 M^−1sec−^1
- KS(calc) ([1]; true KS calculated from apparent KS′ with KS = KS′(1 + KO/[O2])): 3.1 ± 0.3 µM
- kcat ([1]; true value, saturating substrate (3.7 mM), buffer saturated with pure O2 (1.12 mM)): 8.0 ± 0.8 s⁻¹
- OVCAR-3 cells killed [2]: 100%
- HL-60 cell survival ([3]; 24 hrs, all tested concentrations): survived for 24 hrs
- HL-60 cells survived ([3]; 72 hrs exposure, 0.05 mM): 100%
- HL-60 cells killed ([3]; 72 hrs exposure, 0.1 mM): 30%
- HL-60 cells killed ([3]; 72 hrs exposure, 0.2 mM): 50%
- HL-60 cells killed ([3]; 72 hrs exposure, 0.5 mM): 80%
- hpao mRNA level ([4]; HL-60 cells, 48 hr exposure to high concentrations): no change
- hpao mRNA level ([4]; OVCAR-3 cells, very quickly after exposure): significant levels of hpao mRNA were induced
